Experimental data from patent US9718812B2, “Substituted thiazole or oxazole P2X7 receptor antagonists” (Axxam S.P.A., priority 2014, dated 2017).

Assays:
Assay type in all cases: cell-based
P2X7 receptor (hP2X7) = P2X7 receptor (hP2X7) (Homo sapiens (Human), UniProt Q99572); test: Screen Quest Fluo-8 No Wash Calcium Assay (Bz-ATP-induced Ca2+ influx, FLIPR TETRA); conditions: HEK-293 cells stably transfected with P2X7 receptor, Fluo-8 calcium, Low Divalent Cation Assay Buffer
Method in brief: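 Read-out is Fluo-8 NW fluorescence recorded over a 5-min kinetic window, reporting Bz-ATP-evoked Ca2+ entry. Cells: HEK-293 stably expressing the P2X7 receptor, dye-loaded for 1 h at room temperature before compound injection.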

P2X7 receptor [1] = biological target: T1, P2X7 receptor (Homo sapiens (Human), UniProt Q99572); test: human P2X7 channel assay by automated patch-clamp (QPatch 16X); conditions: HEK-293 cells expressing P2X7 channels, 100 microM BzATP, held at -80 mV, read-out: hP2X7 (IC50; nM)
T1 sequence (Q99572 whole entry): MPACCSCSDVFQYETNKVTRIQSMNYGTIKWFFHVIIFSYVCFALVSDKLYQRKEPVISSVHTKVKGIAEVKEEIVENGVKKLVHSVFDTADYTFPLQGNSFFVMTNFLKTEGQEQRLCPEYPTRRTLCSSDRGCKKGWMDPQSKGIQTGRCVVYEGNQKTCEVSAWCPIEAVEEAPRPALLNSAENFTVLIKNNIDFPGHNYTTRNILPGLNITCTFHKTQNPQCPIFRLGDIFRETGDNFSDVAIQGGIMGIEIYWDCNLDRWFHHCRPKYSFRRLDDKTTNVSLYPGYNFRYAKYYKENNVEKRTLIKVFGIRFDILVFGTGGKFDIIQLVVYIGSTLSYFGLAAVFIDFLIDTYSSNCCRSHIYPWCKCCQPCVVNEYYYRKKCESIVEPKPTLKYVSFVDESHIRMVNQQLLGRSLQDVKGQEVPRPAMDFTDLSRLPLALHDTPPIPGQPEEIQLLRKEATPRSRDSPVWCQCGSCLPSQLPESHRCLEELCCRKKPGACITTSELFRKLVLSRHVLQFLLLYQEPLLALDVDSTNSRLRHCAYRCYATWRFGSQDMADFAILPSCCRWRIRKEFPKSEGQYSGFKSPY
Protocol: In order to directly monitor the block of P2X7 channel, an electrophysiological assay was developed and implemented on the QPatch 16X automated electrophysiology instrument.
HEK-293 cells expressing the P2X7 channels were cultured in modified EMEM.
72 hours before experiment, 5 million cells were seeded onto T225 flasks. Just before the experiment cells were washed twice, detached from the flask with trypsin-EDTA, re-suspended in the suspension solution and placed on the QPatch 16x.
The compounds (20 mM in a 100% DMSO) stored at −20° C. were prepared the day of the experiment (a first dilution 1:20 in 100% DMSO to prepare a 1 mM stock solution, then a 1 microM solution in external solution+a serial dilution 1:10).
The standard whole-cell voltage clamp experiments were performed at room temperature. For these experiments the multihole technology was used and the data were sampled at 2 KHz.
The intracellular solution contained (mM) 135 CsF, 10 NaCl, 1 EGTA, 10 HEPES, (pH 7.2 with CsOH) whereas the extracellular contained (mM) 145 NaCl, 4 KCl, 0.5 MgCl2, 1 CaCl2, 10 HEPES, 10 Glc (pH 7.4 with NaOH).
After establishment of the seal and the passage in the whole cell configuration, the cells were held at −80 mV. The P2XR7 current was evoked by applying 100 microM of BzATP alone (4 times) and then in the presence increasing concentrations of the compound under investigation (1, 10, 100 and 1000 nM).
The pre-incubation periods 5 to 8 contain increasing concentrations of the compound of interest (1, 10, 100 and 1000 nM), as illustrated in Figure (application protocol).
The maximal inward current evoked by BzATP in absence or presence of increasing concentrations of the compounds under investigation was measured and normalized.
Y: normalized response, 100% down to 0%, decreasing as X increases.
Log IC50: same log units as X
HillSlope: slope factor or HS, unitless

P2X7 receptor [2] = biological target: T1, P2X7 receptor; test: YO-PRO-1 Uptake Assay (large pore form, Bz-ATP stimulated); conditions: HEK-293 cells stably transfected with P2X7 receptor; Bz-ATP EC80 (30 μM); 5 μM YO-PRO-1
Method in brief: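 IC50 values derive from percent inhibition versus A438079, using large-pore YO-PRO-1 (5 μM) entry into P2X7-transfected HEK-293 cells. Buffer held 0.3 mM Ca2+ and no Mg2+; after 5 min with test compound, cells were challenged with Bz-ATP at EC80 (30 μM, 3× concentration) and fluorescence recorded 60 min.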

P2X7 receptor (hP2X7), sequence (Q99572 whole entry): as above

Row | Compound | IC50 (P2X7 receptor (hP2X7)) | IC50 (P2X7 receptor [1]) | IC50 (P2X7 receptor [2])
1 | Cc1ncc(C(CNC(=O)c2cc(-c3ncc(F)cn3)ccc2Cl)N2CCC(F)(F)CC2)s1 (single isomer, unassigned; (+)) [Compound 127, (+)-2-chloro-N-[2-(4,4-difluoro-piperidin-1-yl)-2-(2-methylthiazol-5-yl)ethyl]-5-(5-fluoropyrimidin-2-yl)benzamide] | 73 nM | 65.7 nM | 22 nM
2 | O=C(NCC(c1scnc1C(F)(F)F)N1CCC(F)(F)CC1)c1c(F)cccc1Cl (stereo not shown) [Compound 67, 2-chloro-N-[2-(4,4-difluoropiperidin-1-yl)-2-[4-(trifluoromethyl)-1,3-thiazol-5-yl]ethyl]-6-fluorobenzamide] | 108 nM | 117 nM | 287 nM
3 | Cc1ncoc1C(CNC(=O)c1ccc(-c2ncc(F)cn2)cc1Cl)N1CCc2ccccc2C1 (stereo not shown) [Compound 57, 2-chloro-4-(5-fluoropyrimidin-2-yl)-N-[2-(4-methyl-1,3-oxazol-5-yl)-2-(1,2,3,4-tetrahydroisoquinolin-2-yl)ethyl]benzamide] | 214 nM | 71 nM | 197 nM
4 | Cc1ncsc1C(CNC(=O)c1cc(-c2ncc(F)cn2)ccc1F)N1CCC(F)(F)CC1 (stereo not shown) [Compound 70, N-[2-(4,4-difluoropiperidin-1-yl)-2-(4-methyl-1,3-thiazol-5-yl)ethyl]-2-fluoro-5-(5-fluoropyrimidin-2-yl)benzamide] | 32 nM | 58.4 nM | 183 nM
5 | Cc1ncsc1C(CNC(=O)c1cc(-c2cnccn2)ccc1Cl)N1CCC(F)(F)CC1 (stereo not shown) [Compound 72, 2-chloro-N-[2-(4,4-difluoropiperidin-1-yl)-2-(4-methyl-1,3-thiazol-5-yl)ethyl]-5-(pyrazin-2-yl)benzamide] | 30 nM | 78.1 nM | 60 nM
6 | O=C(NCC(c1scnc1C(F)F)N1CCC(F)(F)CC1)c1cc(-c2ncc(F)cn2)ccc1Cl (stereo not shown) [Compound 102, 2-chloro-N-{2-[4-(difluoromethyl)-1,3-thiazol-5-yl]-2-(4,4-difluoropiperidin-1-yl)ethyl}-5-(5-fluoropyrimidin-2-yl)benzamide] | 60 nM | 57.1 nM | 34 nM
7 | Cc1ncsc1C(CNC(=O)c1c(F)cccc1Cl)N1CCOCC1 (stereo not shown) [Compound 35, 2-chloro-6-fluoro-N-[2-(4-methyl-1,3-thiazol-5-yl)-2-(morpholin-4-yl)ethyl]benzamide] | 469 nM | 947 nM | 4080 nM
8 | Cc1ncsc1C(CNC(=O)c1cc(-c2ncc(F)cn2)ccc1Cl)N1CCCC(F)(F)C1 (stereo not shown) [Compound 66, 2-chloro-N-[2-(3,3-difluoropiperidin-1-yl)-2-(4-methyl-1,3-thiazol-5-yl)ethyl]-5-(5-fluoropyrimidin-2-yl)benzamide] | 22 nM | 82.5 nM | 58 nM
9 | Cc1ncsc1C(CNC(=O)c1c(F)cccc1Cl)N1CCC(OCc2ccccc2)CC1 (stereo not shown) [Compound 59, N-{2-[4-(benzyloxy)piperidin-1-yl]-2-(4-methyl-1,3-thiazol-5-yl)ethyl}-2-chloro-6-fluorobenzamide] | 242 nM | 69.2 nM | 55 nM
10 | Cc1ncc(C(CNC(=O)c2c(C)cccc2Cl)N2CCC(F)(F)CC2)s1 (stereo not shown) [Compound 39, 2-chloro-N-[2-(4,4-difluoropiperidin-1-yl)-2-(2-methyl-1,3-thiazol-5-yl)ethyl]-6-methylbenzamide] | 28 nM | 61.9 nM | 18 nM
11 | O=C(NCC(c1cnc(C2CC2)s1)N1CCC(F)(F)CC1)c1c(F)cccc1Cl (stereo not shown) [Compound 88, 2-chloro-N-[2-(2-cyclopropyl-1,3-thiazol-5-yl)-2-(4,4-difluoropiperidin-1-yl)ethyl]-6-fluorobenzamide] | 36 nM | 52.1 nM | 28 nM
12 | Cc1cccc(C)c1C(=O)NCC(c1cncs1)N1CCC(F)(F)CC1 (stereo not shown) [Compound 14, N-[2-(4,4-difluoropiperidin-1-yl)-2-(1,3-thiazol-5-yl)ethyl]-2,6-dimethylbenzamide] | 27 nM | 22.7 nM | 24 nM
13 | O=C(NCC(c1cnco1)N1CCC(F)(F)CC1)c1cc(-c2ncc(F)cn2)ccc1Cl (stereo not shown) [Compound 47, 2-chloro-N-[2-(4,4-difluoropiperidin-1-yl)-2-(1,3-oxazol-5-yl)ethyl]-5-(5-fluoropyrimidin-2-yl)benzamide] | 43 nM | 33.9 nM | 36 nM
14 | Cc1ncsc1C(CN(C)C(=O)c1cc(-c2ncc(F)cn2)ccc1Cl)N1CCC(F)(F)CC1 (stereo not shown) [Compound 77, 2-chloro-N-[2-(4,4-difluoropiperidin-1-yl)-2-(4-methyl-1,3-thiazol-5-yl)ethyl]-5-(5-fluoropyrimidin-2-yl)-N-] | 1760 nM | 183 nM | 
15 | Cc1ncsc1C(CNC(=O)c1c(F)cccc1Cl)N1CCC(Oc2ccccc2)CC1 (stereo not shown) [Compound 60, 2-chloro-6-fluoro-N-[2-(4-methyl-1,3-thiazol-5-yl)-2-(4-phenoxypiperidin-1-yl)ethyl]benzamide] | 188 nM | 58.9 nM | 79 nM
16 | Cc1ncsc1C(CNC(=O)c1c(F)cccc1Cl)N1CCc2ccccc2C1 (stereo not shown) [Compound 29, 2-chloro-6-fluoro-N-[2-(4-methyl-1,3-thiazol-5-yl)-2-(1,2,3,4-tetrahydroisoquinolin-2-yl)ethyl]benzamide] | 130 nM | 36.1 nM | 90 nM
17 | Cc1cccc(-c2ccc(Cl)c(C(=O)NCC(c3scnc3C)N3CCC(F)(F)CC3)c2)n1 (stereo not shown) [Compound 74, 2-chloro-N-[2-(4,4-difluoropiperidin-1-yl)-2-(4-methyl-1,3-thiazol-5-yl)ethyl]-5-(6-methylpyridin-2-yl)benzamide] | 55 nM | 65.2 nM | 87 nM
18 | O=C(NCC(c1scnc1C(F)F)N1CCC(F)(F)CC1)c1c(F)cccc1Cl (stereo not shown) [Compound 95, 2-chloro-N-{2-[4-(difluoromethyl)-1,3-thiazol-5-yl]-2-(4,4-difluoropiperidin-1-yl)ethyl}-6-fluorobenzamide] | 54 nM |  | 82 nM
19 | Cc1cccc(Cl)c1C(=O)NCC(c1scnc1C)N1CCOC(c2ccc(F)cc2F)C1 (stereo not shown) [Compound 100, 2-chloro-N-{2-[2-(2,4-difluorophenyl)morpholin-4-yl]-2-(4-methyl-1,3-thiazol-5-yl)ethyl}-6-methylbenzamide] | 68 nM |  | 72 nM
20 | Cc1ncc(C(CNC(=O)c2c(C)cccc2Cl)N2CCc3ccccc3C2)s1 (stereo not shown) [Compound 41, 2-chloro-6-methyl-N-[2-(2-methyl-1,3-thiazol-5-yl)-2-(1,2,3,4-tetrahydroisoquinolin-2-yl)ethyl]benzamide] | 853 nM |  | 996 nM
21 | Cc1ncc(C(CNC(=O)c2cc(-c3ncc(F)cn3)ccc2Cl)N2CCC(F)(F)CC2)s1 (racemic) [Compound 61, 2-chloro-N-[2-(4,4-difluoropiperidin-1-yl)-2-(2-methyl-1,3-thiazol-5-yl)ethyl]-5-(5-fluoropyrimidin-2-yl)benzamide] | 280 nM | 56.3 nM | 124 nM
22 | O=C(NCC(c1scnc1C(F)(F)F)N1CCC(F)(F)CC1)c1cc(-c2ncc(F)cn2)ccc1Cl (stereo not shown) [Compound 68] | 103 nM | 63.1 nM | 181 nM
23 | COc1cccc(C(=O)NCC(c2ocnc2C)N2CCc3ccccc3C2)c1OC (stereo not shown) [Compound 56, 2,3-dimethoxy-N-[2-(4-methyl-1,3-oxazol-5-yl)-2-(1,2,3,4-tetrahydroisoquinolin-2-yl)ethyl]benzamide] | 147 nM |  | 414 nM
